Measured values from US20120316161A1, “NOVEL ANTIVIRAL COMPOUNDS” (KATHOLIEKE UNIVERSITEIT LEUVEN, priority 2009, published 2012).
Like-named read-outs stand apart in the source and are kept apart here.

Columns and labels:
[1] = Cytotoxicity in mock-infected MT-4 cells (MTT); assay type: cell-based; conditions: human, mock-infected MT-4 cells
Procedure: A rapid and automated assay procedure was used for the in vitro evaluation of anti-HIV agents. An HTLV-1 transformed T4-cell line MT-4, which was previously shown to be highly susceptible to and permissive for HIV infection, served as the target cell line. Inhibition of the HIV-induced cytopathogenic effect was used as the end point. The viability of both HIV-and mock-infected cells was assessed spectrophotometrically via in situ reduction of 3-(4,5-dimethylthiazol-2-yl)-2,5-diphenyltetrazolium bromide (MTT). […] The percent protection achieved by the compound in HIV-infected cells was calculated by the following formula: […]
whereby (ODT)HIV is the optical density measured with a given concentration of the test compound in HIV-infected cells; (ODC)HIV is the optical density measured for the control untreated HIV-infected cells; (ODC)MOCK is the optical density measured for the control untreated mock-infected cells; all optical density values were determined at 540 nm. […] The ratio of CC50 to EC50 was defined as the selectivity index (SI).

[2] = test system: HIV; assay: microbe, parasite or virus in culture; assay type: cell-based; conditions: Human immunodeficiency virus 1, MT4
Procedure: A rapid and automated assay procedure was used for the in vitro evaluation of anti-HIV agents. An HTLV-1 transformed T4-cell line MT-4, which was previously shown to be highly susceptible to and permissive for HIV infection, served as the target cell line. Inhibition of the HIV-induced cytopathogenic effect was used as the end point. The viability of both HIV-and mock-infected cells was assessed spectrophotometrically via in situ reduction of 3-(4,5-dimethylthiazol-2-yl)-2,5-diphenyltetrazolium bromide (MTT). The 50% cytotoxic concentration (CC50 in μg/ml) was defined as the concentration of compound that reduced the absorbance of the mock-infected control sample by 50%. The percent protection achieved by the compound in HIV-infected cells was calculated by the following formula: […]
whereby (ODT)HIV is the optical density measured with a given concentration of the test compound in HIV-infected cells; (ODC)HIV is the optical density measured for the control untreated HIV-infected cells; (ODC)MOCK is the optical density measured for the control untreated mock-infected cells; all optical density values were determined at 540 nm. The dose achieving 50% protection according to the above formula was defined as the 50% inhibitory concentration (EC50 in μg/ml or μM). The ratio of CC50 to EC50 was defined as the selectivity index (SI). […] Examples of inhibition of cell proliferation by particular compounds of the invention can be found by looking at the respective CC50 values in the MT-4 cell line. Cells: MT-4 cells (Miyoshi et al., 1982) were grown and maintained in RPMI 1640medium supplemented with 10% heat-inactivated fetal calf serum, 2 mM 1-glutamine, 0.1% sodium bicarbonate, and 20æg of gentamicin per ml.
Viruses: The HIV-1 (NL4.3) strain (Adachi et al., 1986) is a molecular clone obtained from the National Institutes of Health (Bethesda, Md.). The HIV-2 (ROD) (Barr, -Sinoussi et al., 1983) stock was obtained from culture supernatant of HIV-2 infected cell lines.

[3] = target: T1, LEDGF-integrase interaction (His6-tagged HIV-1 integrase, flag-LEDGF/p75) (Human immunodeficiency virus type 1 group M subtype B, UniProt P04585); assay: AlphaScreen assay of LEDGF-integrase interaction inhibition; assay type: binding; conditions: compound at 100 μM
T1 construct: His6-tagged HIV-1 integrase; made in house
Procedure: The AlphaScreen assay was performed according to the manufacturer's protocol (Perkin Elmer, Benelux). Reactions were performed in 25 μl final volume in 384-well Optiwell™ microtiter plates (Perkin Elmer). The reaction buffer contained 25 mM Tris-HCl (pH 7.4), 150 mM NaCl, 1 mM MgCl2, 0.01% (v/v) Tween-20 and 0.1% (w/v) bovine serum albumin. His6-tagged integrase (300 nM final concentration) was incubated with the compounds for 30 min at 4° C. The compounds were added at varying concentrations spanning a wide range from 0.1 up to 100 μM. Afterwards 100 nM flag-LEDGF/p75 was added and incubation was prolonged for an additional hour at 4° C. Subsequently 5 μl of Ni-chelate—coated acceptor beads and 5 μl anti-flag donor beads were added to a final concentration of 20 μg/ml of both beads. Proteins and beads were incubated for 1 h at 30° C. in order to allow association to occur. Exposure of the reaction to direct light was omitted as much as possible and the emission of light from the acceptor beads was measured in the EnVision plate reader (Perkin Elmer, Benelux) and analyzed using the EnVision manager software. IN/DNA binding was analyzed in a similar setting using His6-tagged integrase (1 μM final concentration) and an oligodeoxynucleotide mimicking the IN ELISA oligonucleotide substrate (30 nM final concentration). Counterscreens with JPO2 or PogZ, respectively, were essentially performed as described previously. Expression and purification of recombinant proteins: His6-tagged HIV-1 integrase, 3xflag-tagged LEDGF/p75, MBP-JPO2 and MBP-PogZ were purified for AlphaScreen applications as described previously.

[4] = 50% protection of HIV-infected MT-4 cells, read-out: EC50

In the case of `CCCC(C(=O)O)c1c(C)nc2cc(C(C)(C)C)nn2c1-c1ccc(C)cc1Cl` (centres unmarked) [CPD-92, 2-(2-tert-butyl-7-(2-chloro-4-methylphenyl)-5-methylpyrazolo[1,5-a]pyrimidin-6-yl)pentanoic acid], the CC50 [1] is reported as 60.5 µM, the EC50 [2, 4] is reported as 9.13 µM and the “Alpha screen % (100 μM)” value [3] is reported as 95%.

With `CCCC(C(=O)O)c1c(C)nc2cc(C(C)(C)C)nn2c1-c1ccc(C)cc1F` (centres unmarked) [CPD-80, 2-(2-tert-butyl-7-(2-fluoro-4-methylphenyl)-5-methylpyrazolo[1,5-a]pyrimidin-6-yl)pentanoic acid] the CC50 [1] was 192 µM, the EC50 [2, 4] was 4.08 µM and the “Alpha screen % (100 μM)” value [3] was 75%.

`CCC(C)C(C(=O)O)c1c(C)nc2cc(C(C)(C)C)nn2c1-c1ccc(C)cc1` (centres unmarked) [CPD-86, 2-(2-tert-butyl-7-p-tolyl-5-methylpyrazolo[1,5-a]pyrimidin-6-yl)-3-methylpentanoic acid] showed a CC50 [1] of 77 µM.

In the case of `CCCC(C(=O)O)c1c(C)nc2cc(-c3ccccc3)nn2c1-c1ccc(C)cc1` (centres unmarked) [CPD-61, 2-(5-methyl-2-phenyl-7-p-tolylpyrazolo[1,5-a]pyrimidin-6-yl)pentanoic acid], the CC50 [1] is reported as 104 µM, the EC50 [2, 4] is reported as 30.2 µM and the “Alpha screen % (100 μM)” value [3] is reported as 94%.

`CCCC(C(=O)O)c1c(C)nc2c(nc(C)n2C)c1-c1ccc(C)cc1` (centres unmarked) [CPD-105, 2-(2,3,5-Trimethyl-7-p-tolyl-3H-imidazo[4,5-b]pyridin-6-yl)pentanoic acid] showed a CC50 [1] of 235 µM and an EC50 [2, 4] of 23.2 µM.

In the case of `CCCC(C(=O)O)c1c(C)nc2ccnn2c1-c1ccc(C)cc1` (centres unmarked) [CPD-57, 2-(5-methyl-7-p-tolylpyrazolo[1,5-a]pyrimidin-6-yl)pentanoic acid], the CC50 [1] is reported as > 250 µM, the EC50 [2, 4] is reported as 192 µM and the “Alpha screen % (100 μM)” value [3] is reported as 84%.

In the case of `CCCC(C(=O)O)c1c(C)nc2c(-c3ccccc3)c(C(C)(C)C)nn2c1-c1ccc(C)cc1` (centres unmarked) [CPD-100, 2-(2-tert-butyl-5-methyl-3-phenyl-7-p-tolylpyrazolo[1,5-a]pyrimidin-6-yl)pentanoic acid], the CC50 [1] is reported as 23 µM, the EC50 [2, 4] is reported as 6.24 µM and the “Alpha screen % (100 μM)” value [3] is reported as 92%.

In the case of `CCCC(C(=O)O)c1c(C)nc2cc(C(C)(C)C)nn2c1-c1ccc(C(F)(F)F)cc1` (centres unmarked) [CPD-90, 2-(2-tert-butyl-5-methyl-7-(4-trifluoromethylphenyl)pyrazolo[1,5-a]pyrimidin-6-yl)pentanoic acid], the CC50 [1] is reported as 22 µM, the EC50 [2, 4] is reported as 6.15 µM and the “Alpha screen % (100 μM)” value [3] is reported as 70%.

For `CCCC(C(=O)O)c1c(C)nc2c(Cl)c(C(C)(C)C)nn2c1-c1ccc(C)cc1` (centres unmarked) [CPD-87, 2-(2-tert-butyl-3-chloro-7-p-tolyl-5-methylpyrazolo[1,5-a]pyrimidin-6-yl)pentanoic acid], the CC50 [1] was 38.3 µM, the EC50 [2, 4] was 2.33 µM and the “Alpha screen % (100 μM)” value [3] was 67%.

In the case of `CCCC(C(=O)O)c1c(C)nc2cc(C(C)(C)C)nn2c1-c1ccc(F)cc1F` (centres unmarked) [CPD-91, 2-(2-tert-butyl-7-(2,4-difluorophenyl)-5-methylpyrazolo[1,5-a]pyrimidin-6-yl)pentanoic acid], the CC50 [1] is reported as 85.5 µM, the EC50 [2, 4] is reported as 15.7 µM and the “Alpha screen % (100 μM)” value [3] is reported as 90%.

With `CCCC(C(=O)O)c1c(C)nc2cc(C(C)(C)C)nn2c1-c1ccc(C)c(C)c1` (centres unmarked) [CPD-70, 2-(2-tert-butyl-7-(3,4-dimethylphenyl)-5-methylpyrazolo[1,5-a]pyrimidin-6-yl)pentanoic acid] the CC50 [1] was > 125 µM, the EC50 [2, 4] was 72.1 µM and the “Alpha screen % (100 μM)” value [3] was 93%.

For `CCCc1cc2nc(C)c(C(CCC)C(=O)O)c(-c3ccc(C)cc3)n2n1` (centres unmarked) [CPD-77, 2-(5-methyl-2-propyl-7-p-tolylpyrazolo[1,5-a]pyrimidin-6-yl)pentanoic acid], the CC50 [1] was 203 µM, the EC50 [2, 4] was 28.1 µM and the “Alpha screen % (100 μM)” value [3] was 83%.

In the case of `CCCC(C(=O)O)c1c(C)nc2cc(-c3ccco3)nn2c1-c1ccc(C)cc1` (centres unmarked) [CPD-78, 2-(2-(furan-2-yl)-5-methyl-7-p-tolylpyrazolo[1,5-a]pyrimidin-6-yl)pentanoic acid], the CC50 [1] is reported as 127 µM, the EC50 [2, 4] is reported as 21.2 µM and the “Alpha screen % (100 μM)” value [3] is reported as 83%.

For `CCCC(C(=O)O)c1c(C)nc2nc(C(C)C)nn2c1-c1ccc(C)cc1` (centres unmarked) [CPD-121, 2-(2-isopropyl-5-methyl-7-p-tolyl-[1,2,4]-triazolo[1,5-a]pyrimidin-6-yl)pentanoic acid], the CC50 [1] was > 250 µM and the EC50 [2, 4] was 124 µM.

For `CCCC(C(=O)O)c1c(C)nc2c(C)c(C(C)(C)C)nn2c1-c1ccc(C)cc1` (centres unmarked) [CPD-99, 2-(2-tert-butyl-3,5-dimethyl-7-p-tolylpyrazolo[1,5-a]pyrimidin-6-yl)pentanoic acid], the CC50 [1] was 34 µM, the EC50 [2, 4] was 1.01 µM and the “Alpha screen % (100 μM)” value [3] was 81%.

In the case of `CCCC(C(=O)O)c1c(C)nc2cc(C(C)(C)C)nn2c1-c1ccc2c(c1)CCO2` (centres unmarked) [CPD-68, 2-(2-tert-butyl-7-(2,3-dihydrobenzofuran-5-yl)-5-methylpyrazolo[1,5-a]pyrimidin-6-yl)pentanoic acid], the CC50 [1] is reported as 101 µM, the EC50 [2, 4] is reported as 6.42 µM and the “Alpha screen % (100 μM)” value [3] is reported as 93%.

In the case of `CCCC(C(=O)O)c1c(C)nc2cc(C(C)(C)C)nn2c1-c1ccc2occc2c1` (centres unmarked) [CPD-66, 2-(7-(benzofuran-5-yl)-2-tert-butyl-5-methylpyrazolo[1,5-a]pyrimidin-6-yl)pentanoic acid], the CC50 [1] is reported as 99 µM, the EC50 [2, 4] is reported as 10.5 µM and the “Alpha screen % (100 μM)” value [3] is reported as 92%.

In the case of `CCCC(C(=O)O)c1c(C)nc2cc(C(C)(C)C)nn2c1-c1ccc(Cl)cc1` (centres unmarked) [CPD-69, 2-(2-tert-butyl-7-(4-chlorophenyl)-5-methylpyrazolo[1,5-a]pyrimidin-6-yl)pentanoic acid], the CC50 [1] is reported as 40.3 µM, the EC50 [2] is reported as 1.61 µM and the “Alpha screen % (100 μM)” value [3] is reported as 93%.

In the case of `CCCC(C(=O)O)c1c(C)nc2cc(C(C)(C)C)nn2c1-c1ccc2cc[nH]c2c1` (centres unmarked) [CPD-65, 2-(2-tert-butyl-7-(1H-indol-6-yl)-5-methylpyrazolo[1,5-a]pyrimidin-6-yl)pentanoic acid], the CC50 [1] is reported as 46.5 µM, the EC50 [2] is reported as 5.69 µM and the “Alpha screen % (100 μM)” value [3] is reported as 30%.

For `Cc1ccc(-c2c(C(CCCC(F)(F)F)C(=O)O)c(C)nc3cc(C(C)(C)C)nn23)cc1` (centres unmarked) [CPD-81, 2-(2-tert-butyl-7-p-tolyl-5-methylpyrazolo[1,5-a]pyrimidin-6-yl)-6,6,6-trifluorohexanoic acid], the CC50 [1] was 56 µM, the EC50 [2, 4] was 16.4 µM and the “Alpha screen % (100 μM)” value [3] was 65%.

With `CCCC(C(=O)O)c1c(C)nc2cc(C(C)(C)C)nn2c1-c1ccc2c(c1)CCCO2` (centres unmarked) [CPD-85] the CC50 [1] was 125 µM, the EC50 [2, 4] was 2.54 µM and the “Alpha screen % (100 μM)” value [3] was 76%.

For `CCCC(C(=O)O)c1c(C)nc2cc(C(C)(C)C)nn2c1-c1ccc(Cl)cc1F` (centres unmarked) [CPD-79, 2-(2-tert-butyl-7-(4-chloro-2-fluorophenyl)-5-methylpyrazolo[1,5-a]pyrimidin-6-yl)pentanoic acid], the CC50 [1] was 76 µM, the EC50 [2, 4] was 1.89 µM and the “Alpha screen % (100 μM)” value [3] was 75%.

For `CCCC(C(=O)O)c1c(C)nc2cc(C(C)(C)C)nn2c1-c1ccc(C)cc1N` (centres unmarked) [CPD-93, 2-(7-(2-amino-4-methylphenyl)-2-tert-butyl-5-methylpyrazolo[1,5-a]pyrimidin-6-yl)pentanoic acid], the CC50 [1] was 119 µM, the EC50 [2] was 7.4 µM and the “Alpha screen % (100 μM)” value [3] was 90%.
